Results taken from the NIST ThermoML archive (doi:10.1016/j.jct.2019.05.017).

Experiments:
[1] = 101.3 kPa, Liquid, Vibrating tube method
[2] = wn = mass fraction of the nth substance listed; details: 101.3 kPa, Liquid, Vibrating tube method

NCCO [2-aminoethan-1-ol]
[1]
Details	mass density [kg/m3]
303.15 K	1008.8
313.15 K	1000.9

CCOCCO [2-ethoxyethan-1-ol]
[1]
Details	mass density [kg/m3]
293.15 K	929.7
298.15 K	925.2
303.15 K	920.7
308.15 K	916.1
313.15 K	911.5
318.15 K	906.8
323.15 K	902.1
328.15 K	897.4
333.15 K	892.6

CCOCCO [2-ethoxyethan-1-ol] + NCCO
[2], w2 = 0.318
Details	mass density [kg/m3]
293.15 K	960.2
298.15 K	956
303.15 K	951.7
308.15 K	947.4
313.15 K	943
318.15 K	938.7
323.15 K	934.3
328.15 K	929.8
333.15 K	925.4

COCCO [2-methoxyethan-1-ol]
[1]
Details	mass density [kg/m3]
283.15 K	974.7
288.15 K	969.9
293.15 K	964.7
298.15 K	960.1
303.15 K	955.5
308.15 K	950.9
313.15 K	946.2
318.15 K	941.5
323.15 K	936.7
328.15 K	932
333.15 K	927.2

COCCO [2-methoxyethan-1-ol] + NCCO
[2], w2 = 0.31
Details	mass density [kg/m3]
293.15 K	985.5
298.15 K	981.1
303.15 K	976.8
308.15 K	972.5
313.15 K	968.1
318.15 K	963.7
323.15 K	959.2
328.15 K	954.8
333.15 K	950.3
